Columns and labels:
FJX1 mRNA = test: qRT-PCR of FJX1 expression in rectal cancer biopsies before and after celecoxib; type: in vivo, human; settings: range in the four of five rectal cancers that were down-regulated; pre vs post treatment
[1] = tested on: FJX1 mRNA in SW480 colon cancer cells; test: qRT-PCR of FJX1 mRNA after γ-secretase inhibition in SW480 cells; type: cell-based, human; settings: 200 nM DAPT vs vehicle (DMSO), 16 hrs
Procedure: FIG. 3—Decreased FJX1 expression following inhibition of […] (DAPT) in SW480 colon cancer cells. Cells were grown to 70-80% confluence using complete RPMI and then treated with 200 nM of DAPT or vehicle. The RNA was harvested 16 hrs later using an RNeasy™ kit (Qiagen). qRT-PCR was performed as outlined in the text. Gene expression values were normalized to a housekeeping gene (PMM1) for the final analysis. The values are expressed as fold-change in comparison to normal colonic mucosal levels.
(§1) FIG. 19A-B—Inhibition of Notch signaling causes a reduction in fjx1 expression in colon cancer cells. Fjx1 expression levels as determined by qRT-PCR in (FIG. 19A) SW480 and (FIG. 19B) SW620 colon cancer cells following treatment with the γ-secretase inhibitor DAPT.
Since four-jointed in Drosophila is regulated by Notch signaling, and mouse fjx1 expression appears to be a target of Notch regulation, the inventors predicted that inhibition of Notch signaling would inhibit FJX1 expression in colon cancer cells. A reliable pharmacological method of inhibiting Notch signaling is to block release of the Notch intracellular domain through inhibition of γ-secretase activity (van Es et al., 2005). Therefore, the inventors used a selective inhibitor of γ-secretase, DAPT, or vehicle (DMSO) to treat SW480 and SW620 cells for 16 hrs and determined the effect on levels of FJX1. […]

[2] = tested on: FJX1 mRNA in SW620 colon cancer cells; test: qRT-PCR of FJX1 mRNA after γ-secretase inhibition in SW620 cells; type: cell-based, human; settings: 200 nM DAPT vs vehicle (DMSO), 16 hrs
Text: as §1
Since four-jointed in Drosophila is regulated by Notch signaling, and mouse fjx1 expression appears to be a target of Notch regulation, the inventors predicted that inhibition of Notch signaling would inhibit FJX1 expression in colon cancer cells. A reliable pharmacological method of inhibiting Notch signaling is to block release of the Notch intracellular domain through inhibition of γ-secretase activity (van Es et al., 2005). Therefore, the inventors used a selective inhibitor of γ-secretase, DAPT, or vehicle (DMSO) to treat SW480 and SW620 cells for 16 hrs and determined the effect on levels of FJX1.
(§2) FJX1 expression in colon cancer cells. In preliminary studies examining the role of fjx1 as it relates to Notch signaling in CRC, the inventors have assessed expression of fjx1 mRNA in several human colon cancer cell lines and found abundant expression of fjx1 in both SW480 and SW620 cells (in comparison with colon adenomas), and less abundant expression in HT29 cells as determined by qRT-PCR (data not shown). […]

Notch pathway [3] = test: Notch-responsive reporter (4xCSL-Luc) in HEK293T cells; type: cell-based, human; settings: transient transfection, DAPT 200 nM or dnMAM
Procedure: FIGS. 18A-B—Experimental inactivation of Notch pathway signaling in HEK293 cells. Transient transfections of cells was carried out using a Notch promoter reporter plasmid (4xCSL) and a control reporter (pRL-tk). The Relative Light Units (4xCSL/pRL-tk) are plotted for each treatment group. (FIG. 18A) Notch activity in HEK293 cells following treatment with NICD, NICD+200 nM DAPT, LNG (negative control), LNG+200 nM DAPT and 200 nM DAPT. (FIG. 18B) Notch promoter activity in HEK293 cells following treatment with dnMAM, NICD, NICD+dnMAM, LNG and LNG+dnMAM.
as §2, with “shown). Since four-jointed in Drosophila is regulated by Notch signaling, and mouse fjx1 expression appears to be a target of Notch regulation, the inventors predicted that inhibition of Notch signaling would inhibit fjx1 expression in colon cancer cells. A reliable pharmacological method of inhibiting Notch signaling is to block release of the Notch intracellular domain through inhibition of γ-secretase activity (van Es, 2005).” for “shown).”

Notch pathway [4] = test: Notch-responsive reporter (4xCSL-Luc) in SW480 cells; type: cell-based, human; settings: data not shown
Text: FJX1 expression in colon cancer cells. In preliminary studies examining the role of fjx1 as it relates to Notch signaling in CRC, the inventors have assessed expression of fjx1 mRNA in several human colon cancer cell lines and found abundant expression of fjx1 in both SW480 and SW620 cells (in comparison with colon adenomas), and less abundant expression in HT29 cells as determined by qRT-PCR (data not shown). Since four-jointed in Drosophila is regulated by Notch signaling, and mouse fjx1 expression appears to be a target of Notch regulation, the inventors predicted that inhibition of Notch signaling would inhibit fjx1 expression in colon cancer cells. A reliable pharmacological method of inhibiting Notch signaling is to block release of the Notch intracellular domain through inhibition of γ-secretase activity (van Es, 2005). A complementary genetic method of Notch inhibition is through the use of a truncated, dominant negative construct of Mastermind or “dnMAM” (pCS2-Myc 1-30aa Mastermind a gift from K. A. Jones, Ph.D., the Salk Institute, La Jolla, Calif.) (Fryer, 2002). The dnMAM is mutated such that it cannot form a functional RBPJ complex and therefore, cannot activate the Notch responsive promoter. […] The inventors have also used DAPT treatments of SW480 and SW620 cells (200 nM for 16 hrs) to block expression of fjx1 in response to Notch signaling (FIG. 19).

SMILES	fjx1 mRNA decrease after Celecoxib treatment (qRT-PCR) (FJX1 mRNA)	levels of FJX1 mRNA [1]	levels of FJX1 mRNA [2]	Notch promoter reporter activity (4xCSL/pRL-tk relative light units) (Notch pathway [3])	Notch promoter reporter activity (4xCSL-Luc) (Notch pathway [4])
Cc1ccc(-c2cc(C(F)(F)F)nn2-c2ccc(S(N)(=O)=O)cc2)cc1 [celecoxib]	2.5-17.5 fold decrease	–	–	–	–
C[C@H](NC(=O)Cc1cc(F)cc(F)c1)C(=O)N[C@H](C(=O)OC(C)(C)C)c1ccccc1 [DAPT]	–	reduced the levels of FJX1 mRNA	reduced the levels of FJX1 mRNA	specific Notch pathway inhibition	specific Notch pathway inhibition
